Tests used:
[1] = cited from earlier work
[2] = test system: left ventricle myocardium; experiment: Cross-sectional delayed enhancement MRI/CMR study of gadolinium contrast uptake, voxel intensity and auto-correlation; type: in vivo, human
Text: In particular embodiments of the present invention, a patient may be taken to the MRI suite where he/she will be placed supine on the MRI table and ECG leads and respiratory gating bellows applied. MRI scans may be performed on, for example, a 1.5 Tesla GE CVi scanner with a phased array surface coil applied around the chest to optimize signal to noise ratio, or another MRI scanner. Images may be acquired using a fast gradient echo technique, with the repetition time (TR) and echo time (TE) based on the R-R interval of the subject. Multislice coronal, gradient echo sequences may be used to obtain scout images of the chest and locate the left ventricle. Subjects may be injected intravenously with a gadolinium contrast agent (0.2 mmole/kg Gadoteridol (Prohance, Bracco Diagnostics, Princeton, N.J.)). The time of this injection may be recorded.
However, this method may not be as well suited for a process that causes necrosis to susceptible tissue throughout the LV myocardium in a randomly distributed pattern (e.g. a global injury). To overcome this limitation, voxels, and in some embodiments all the voxels, within three short axis slice positions (apex, middle, and base) within the LV may be sampled and the intensity and x, y, and z coordinates of each voxel identified in 3-dimensional space (FIG. 6). FIG. 6 is a 3-Dimensional depiction of 3 short axis (basal, middle, and apical) planes of the left ventricle. […] During analysis, the image intensity of each voxel and the x, y, and z coordinates are recorded. […]
Correction for variations in the intensity of voxels in the images may also be identified by determining the intensity of voxels within a target region, typically, a 1 cm diameter circular ROI placed outside the heart. For each apical, middle, and basal slice, the number of pixels at a given intensity may be determined and the intensity from the ROI external to the heart subtracted from the pixels. In certain embodiments, for each slice, the mean intensity of all voxels and the peak voxel intensity in the highest 40% of the distribution may be determined (FIG. 6). […]

COc1cccc2c1C(=O)c1c(O)c3c(c(O)c1C2=O)C[C@@](O)(C(=O)CO)C[C@@H]3O[C@H]1C[C@H](N)[C@H](O)[C@H](C)O1 [doxorubicin]
patients experiencing toxicity who do so after receipt of approximately 100 mg/m^2 ([1]; approximately 100 mg/m^2, usually at T=1 month): about 85%
dose above which irreversible cardiomyopathy with serious congestive heart failure is a significant risk ([1]; patients, cumulative dose): 500-550 mg/m^2
dose that precipitates congestive heart failure ([1]; report of 1487 patients studied over a seven year period): 30-880 mg/m^2
mean intensity of contrast uptake in voxel histogram ([2]; doxorubicin cardiomyopathy patient, middle short axis view, 20 minutes after contrast, low in healthy patient, highest in infarct patient): intermediate
percentage of voxel intensities in aggregate histograms vs normal age matched controls ([2]; patients with cardiomyopathy due to doxorubicin, about 20 minutes after contrast): increased percentage of intensities
pattern of contrast uptake within the LV (serial auto-correlation) ([2]; patients with cardiomyopathy secondary to doxorubicin, p<0.001 vs myocardial infarction): random

— patent US9123099B2, “Systems with workstations and circuits for generating images of global injury” (Wake Forest University Health Sciences, priority 2004, dated 2015)
